Reference: ChEMBL document CHEMBL5230124, “Advances of CCR5 antagonists: From small molecules to macromolecules” (Eur J Med Chem, 2020)
Converted amounts (≈) assume the structure as drawn. Values belong to the molecule of their own block, whether it stands above or below them.

What was measured:
[1] = Half life in human plasma; assay type: ADME, cell-free
[2] = Terminal half life in Wistar rat at 10 mg/kg, IM administered as H3-lableled compound by scintillation counting method; assay type: ADME, organism-based; settings: in vivo
[3] = AUC in Wistar rat at 10 mg/kg, IM administered as H3-lableled compound by scintillation counting method; assay type: ADME, organism-based; design: dose 10 mg/kg, route im; settings: in vivo
[4] = Antifertility activity against human Spermatozoa assessed as decrease in sperm motility for 120 mins by hematocytometer analysis; assay type: functional, cell-based

half-life [1]: 30 h
SMILES: CCCCOCCOc1ccc(-c2ccc3c(c2)/C=C(/C(=O)Nc2ccc([S@@+]([O-])Cc4cncn4CCC)cc2)CCCN3CC(C)C)cc1 [CENICRIVIROC]

beta t1/2 [2]: 53.23 h | AUC [3]: 567.17 ng·h/mL
SMILES: Cc1nnc(C(C)C)n1[C@H]1C[C@H]2CC[C@@H](C1)N2CC[C@H](NC(=O)C1CCC(F)(F)CC1)c1ccccc1 [MARAVIROC]

EC50 [4]: 1500 µg/mL (≈ 2580 µM)
SMILES: CCN(Cc1ccccc1)C(=O)C1CCN(CCCN(C(=O)C2CCN(C(C)=O)CC2)c2ccc(C)c(Cl)c2)CC1
